Experimental data: US6218438A, “Copolymer compositions for treating viral infections” (Supratek Pharma, Inc., priority 1999, dated 2001)

What was measured:
[1] = Solubility of Fe(III)BBNH in Pluronic P85 formulations; type: physicochemical
Description: Various amounts of Fe(III)BBNH were dissolved in 200 μl dimethyl formamide and aliquots (20 μl each) were mixed with the equal volumes of Pluronic P85 solutions of various concentrations in methanol. The water solution of sodium acetate (10 μl) was added to each sample to the final concentration of the salt of 60 mM. The samples were dried by using a speed-vac centrifuge. Each sample was dissolved in 100 μl of 10% Pluronic P85 solution in water. The samples were intensively agitated during two hours at room temperature using a rotator. After that the samples were centrifuged at 10,000 g for 10 min. The supernatants were separated and then diluted with 10% Pluronic P85 solution in water to fit the range of calibration curve. The aliquots (50 μl each) were transferred to 96-well plate and analyzed. The optical densities were determined at λ400 nm using a microplate reader. Fe(III)BBNH concentrations in the samples were then determined by using the calibration shown in Example 4A. Each concentration of Fe(III)BBNH was analyzed in triplicates. Each concentration of Fe306 was measured in triplicates.

[2] = Solubility of Fe(III)BBNH in water and organic solvents; type: physicochemical; conditions: room temperature, 180 min
Description: One mg of Fe(III)BBNH was dissolved in 1 ml of dimethyl sulfoxide (DMSO). Aliquots of the solution were further diluted with DMSO to achieve the following final concentrations: […]. Each concentration point of was prepared in triplicates. The aliquots […] of the samples were transferred in 96-well plate. The optical densities (OD) at […] of all the samples were measured by using Microplate Reader.
The samples of Fe(III)BBNH (1 mg each) were placed in 1 ml of the following solvents:
The samples were intensively agitated during three hours at room temperature using a rotator. After that the samples were centrifuged at 10,000 g for 10 minutes. The supernatants (500 μl each) were separated and then were dried by using a speed-vac centrifuge. Each sample was then dissolved in 500 μl DMSO and aliquots (50 μl each) were transferred to 96-well plate. The optical densities were determined at λ400 nm for using microplate reader. Concentrations of the test compound in the samples were then determined by using the above shown calibration data. Each concentration of the test compound was measured in triplicates.

[3] = biological target: T1, HIV-1 reverse transcriptase (p51/p66 RT), RDDP activity (Human immunodeficiency virus type 1 group M subtype B, UniProt P03366); test: Inhibition of RNA dependent DNA polymerase activity of RT (RT RDDP); type: biochemical
T1 construct: 10 ng of p51/p66 heterodimeric RT per assay were used
Description: (§1) BBNH and Fe(III)-BBNH complex at various concentrations were examined for the ability to inhibit RNA dependent and DNA dependent DNA polymerase activities as well as RNAse H activity of HIV-1 reverse transcriptase (RT RDDP, RT DDDP, and RT RNAse H, respectively). To analyze RT RDDP and RT DDDP the following reaction mixture (100 μl total volume) was used: 50 mM Tris-HCl (pH 7.8), 60 mM KCl, 10 mM MgCl2, 10 ng of p51/p66 RT, 0.1-0.5 units of template/primer, and 0.5-25 μM [^3 H]dNTP. Aliquots of the test compounds dissolved in DMSO were added to the reaction mixtures, incubated for 10-20 min. at 37° C. and than quenched with 500 μl of cold 20 mM sodium pyrophosphate in 10% dichloroacetic acid. After 10 min. on ice, the samples were filtered on Whatman 934-AH glass fiber filters and washed with 10% dichloroacetic acid and ethanol, and the radioactivity was determined by liquid scintillation analysis. To analyze RT RNAse H the following reaction mixture (50 μl total volume) was used: 5OmM Tris-HCl (pH 8.0), 60 mM KCl, 8 mM MgCl2, and variable amounts of ([^3 H]rG)-poly(dC). Generally, 10 ng of p51/p66 heterodimeric RT per assay were used. Aliquots of the test compounds dissolved in DMSO were added to the reaction mixtures, incubated for 20 min. at 37° C. and than quenched by placing the tubes on ice followed by the addition of 100 μl of cold 7% perchloric acid. After 10 min. on ice, the samples were centrifuged at 12,000 g for 15 min. 100 μl of the supernatants were carefully removed, and the radioactivity was determined by liquid scintillation analysis.

[4] = biological target: T2, HIV-1 reverse transcriptase (p51/p66 RT), DDDP activity (Human immunodeficiency virus type 1 group M subtype B, UniProt P03366); test: Inhibition of DNA dependent DNA polymerase activity of RT (RT DDDP); type: biochemical
T2 construct: 10 ng of p51/p66 heterodimeric RT per assay were used
Description: as §1

cells = test: Cytotoxicity (general statement); type: cell-based

## CC(C)(C)c1ccc(C(=O)NN=Cc2c(O)ccc3ccccc23)cc1.C[O-].[Cl-].[Cl-].[Fe+3] [Fe(III)-BBNH]
[1]; 1% P85, 1 mg/ml added, 120 min
  Solubility: 1120 µg/mL
[1]; 1% P85, 2 mg/ml added
  Solubility: 2120 µg/mL
[1]; 1% P85, 5 mg/ml added
  Solubility: 1400 µg/mL
[1]; 1% P85, 10 mg/ml added, 120 min
  Solubility: 1390 µg/mL
[1]; 1% P85, 20 mg/ml added, 120 min
  Solubility: 730 µg/mL
[1]; 1% P85, 30 mg/ml added, 120 min
  Solubility: 10 µg/mL
[1]; 1% P85, 40 mg/ml added, 120 min
  Solubility: 30 µg/mL
[1]; 2% P85, 1 mg/ml added, 120 min
  Solubility: 1130 µg/mL
[1]; 2% P85, 2 mg/ml added
  Solubility: 2160 µg/mL
[1]; 2% P85, 5 mg/ml added
  Solubility: 5020 µg/mL
[1]; 2% P85, 10 mg/ml added, 120 min
  Solubility: 3100 µg/mL
[1]; 2% P85, 20 mg/ml added, 120 min
  Solubility: 2710 µg/mL
[1]; 2% P85, 30 mg/ml added, 120 min
  Solubility: 2390 µg/mL
[1]; 2% P85, 40 mg/ml added, 120 min
  Solubility: 420 µg/mL
[1]; 3% P85, 1 mg/ml added, 120 min
  Solubility: 1040 µg/mL
[1]; 3% P85, 2 mg/ml added
  Solubility: 2240 µg/mL
[1]; 3% P85, 5 mg/ml added
  Solubility: 5060 µg/mL
[1]; 3% P85, 10 mg/ml added, 120 min
  Solubility: 7420 µg/mL
[1]; 3% P85, 20 mg/ml added, 120 min
  Solubility: 5150 µg/mL
[1]; 3% P85, 30 mg/ml added, 120 min
  Solubility: 5140 µg/mL
[1]; 3% P85, 40 mg/ml added, 120 min
  Solubility: 2960 µg/mL
[1]; 5% P85, 1 mg/ml added, 120 min
  Solubility: 1090 µg/mL
[1]; 5% P85, 2 mg/ml added
  Solubility: 2080 µg/mL
[1]; 5% P85, 5 mg/ml added
  Solubility: 5090 µg/mL
[1]; 5% P85, 10 mg/ml added, 120 min
  Solubility: 10510 µg/mL
[1]; 5% P85, 20 mg/ml added, 120 min
  Solubility: 10360 µg/mL
[1]; 5% P85, 30 mg/ml added, 120 min
  Solubility: 12250 µg/mL
[1]; 5% P85, 40 mg/ml added, 120 min
  Solubility: 10480 µg/mL
[1]; 10% P85, 1 mg/ml added, 120 min
  Solubility: 1080 µg/mL
[1]; 10% P85, 2 mg/ml added
  Solubility: 2060 µg/mL
[1]; 10% P85, 5 mg/ml added
  Solubility: 5160 µg/mL
[1]; 10% P85, 10 mg/ml added, 120 min
  Solubility: 10710 µg/mL
[1]; 10% P85, 20 mg/ml added, 120 min
  Solubility: 19060 µg/mL
[1]; 10% P85, 30 mg/ml added, 120 min
  Solubility: 22870 µg/mL
[1]; 10% P85, 40 mg/ml added, 120 min
  Solubility: 26240 µg/mL
[2]; Acetonitrile 100%
  Solubility of Fe(III)BBNH dissolved in the sample: 163.6 µg/mL
[2]; Acetonitrile: 10% H2O
  Solubility of Fe(III)BBNH dissolved in the sample: 491.4 µg/mL
[2]; Acetonitrile: 20% H2O
  Solubility of Fe(III)BBNH dissolved in the sample: 293.9 µg/mL
[2]; DMFA 100%
  Solubility of Fe(III)BBNH dissolved in the sample: 1000.2 µg/mL
[2]; DMSO 100%
  Solubility of Fe(III)BBNH dissolved in the sample: 1001.4 µg/mL
[2]; Methanol 100%
  Solubility of Fe(III)BBNH dissolved in the sample: 505.6 µg/mL
[2]; Methanol: 10% H2O
  Solubility of Fe(III)BBNH dissolved in the sample: 206.7 µg/mL
[2]; Water 100%
  Solubility of Fe(III)BBNH dissolved in the sample: < 0.001 µg/mL
[3]
  IC50: 400 ± 80 nM
  Ratio BBNH/Fe(III)-BBNH (IC50), RT RDDP: 4.8
[4]
  IC50: 900 ± 300 nM
  Ratio BBNH/Fe(III)-BBNH (IC50), RT DDDP: 13.5
cells
  cytotoxicity: virtually no cytotoxicity
